Key:
[1] = test system: Human epidermal keratinocytes (HaCaT cells); experiment: "scrape" in vitro wound healing model (wound closure of a scraped confluent monolayer); format: cell-based; details: for wound width, day 1: day 1 (24 hours); for wound width, day 2: day 2 (48 hours); for ability to enhance keratinocyte wound closure compared with thyroglobulin and TGF-β1 inhibitor: at all concentrations of agents
Experimental: The “scrape” in vitro wound healing model has been previously presented in the literature (Li, F. et al., 2000, Exp Cell Res., 258(2): 245-253; Firth J. D. et al., 2004, J. Invest. Dermatol., 122(1): 222-231). In this model a scrape across a confluent monolayer of cells is used to simulate a wound and the effect of agents added to serum free media is tested on the rate of closure of the gap.
Human epidermal keratinocytes (HaCaT cells) were plated at a density of 1×10^5 cells/well into Nunc 6 well plates in Dulbecco's Modified Eagle Medium (DMEM) containing 10% fetal bovine serum (FBS) benzyl penicillin (100 IU/ml), streptomycin […] confluence (2 days) monolayers were “wounded” with a 1 ml pipette tip (0.5 mm width) by scraping the tip across the centre of the well. The wells were then washed 5 times with DMEM. One ml of either DMEM with 10% FBS, DMEM or DMEM with: 3, 6, 12 or 24 mgs/ml bovine fetuin A (Sigma), 6.25, 12.5, 25 or 50 μg/ml peptide TGF peptide antagonist (Corresponding to residues 41-65 of TGFβ-1-3:—Huang S. S. et al., 1997, Journal of Biological Chemistry, 272(43):27155-27159) and 2.1, 4.2, 8.4 and 16.8 mg/ml bovine thyroglobulin was added to each well (2 replicates per plate, 4 plates). These concentrations were calculated to have equivalent antagonistic effect on the binding of TGFβ-1 to its receptor for each of the compounds. All DMEM solutions used contained benzyl penicillin (100 IU/ml), streptomycin ([…]) and fungizone (250 mg/ml). A mark was placed on the base of each well at right angles to the “wound” and the wound was photographed at the intersection of the mark and wound with a Nikon EOS 300 digital camera fitted to a JenaMed (Ziess Jena) inverted microscope (50×). Images were taken at the same positions 24 and 48 hours after addition of the treatment media. Digital images were analysed with Image Pro (Media Cybernetics) image analysis software and an image of a Nikon stage micrometer was used for calibration of length measurements. Results were summarized as the wound width after 24 and 48 hours.

[2] = Penetration of Oregon green labeled fetuin A into wounds in the porcine burn model; format: in vivo, pigs; details: 4 hours post treatment
Experimental: The potential use of the protein as a topical application was explored by labeling the protein with FluoroReporter Oregon Green® 488 Protein (Molecular Probes) then applying it as 1) a hydrophobic cream 2) a hydrophilic cream and an aqueous solution. These were applied to a porcine burn model and skin samples were collected 4 hours after application. Penetration of the protein into the wound was observed by epifluorescent microscopy.
Lyophilised bovine Fetuin A (Sigma) was dissolved in purified water at a concentration of 10 mg/mL. Aliquots of 200 μl were labelled using a FluoroReporter Oregon Green® 488 Protein Labelling Kit (Molecular Probes) after the manufacturer's instructions. The resulting solution was dried down using a Labconco Centrivap concentrator and weighed. Sufficient carriers (paraffin cream (Orion, Australia), aqueous cream (Orion, Australia) or purified water) were added to produce a final concentration of 2 mg/ml of solution or 2 mg/g fetuin cream. Sufficient unlabelled fetuin A was added to the solution and cream to bring the total fetuin A concentration up to 40 mg/ml or gram.
All animal experiments were approved by the University of Queensland animal ethics committee. Six 20 kg pigs (approximately 9 weeks post partum) were scalded under general anaesthesia. Water (400 mls) was placed in a 500 ml Schott bottle whose base had been removed with a diamond saw and replaced by cling wrap held in place by autoclave tape. The water was heated in a microwave oven to 92° C. (temperature was measured with a Dick Smith Q1437 digital thermometer) then the bottle was placed on the clipped side of the animal for 15 seconds. A single 8.5 cm diameter wound was placed on each side of the animal. Each animal received a different treatment these being:
1. Treatment of intact skin with an aqueous solution of 2 mls of Oregon green labeled bovine fetuin (40 mg/ml in sterile phosphate buffered saline pH 7.4).
2. Treatment of intact skin with an aqueous gel of 2 g of Oregon green labeled bovine fetuin (40 mg/g in Solosite™ wound gel).
3. […]

TGF-β2 = target: T1, TGF-β2 (Homo sapiens, UniProt P61812); details: cited from earlier work
T1 sequence (P61812 303-414 limits assumed): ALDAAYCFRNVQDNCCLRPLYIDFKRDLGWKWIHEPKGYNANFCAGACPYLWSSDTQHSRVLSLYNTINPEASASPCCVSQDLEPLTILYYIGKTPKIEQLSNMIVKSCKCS

BMP-6 = target: T2, BMP-6 (Homo sapiens, UniProt P22004); details: cited from earlier work
T2 sequence (P22004 375-513): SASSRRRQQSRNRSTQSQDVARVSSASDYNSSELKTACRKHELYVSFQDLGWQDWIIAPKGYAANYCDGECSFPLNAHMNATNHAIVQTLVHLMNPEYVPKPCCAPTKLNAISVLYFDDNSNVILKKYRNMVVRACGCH

[3] = 3 mgs/ml bovine fetuin A in DMEM
[4] = 6 mgs/ml bovine fetuin A in DMEM
[5] = 12 mgs/ml bovine fetuin A in DMEM
[6] = 24 mgs/ml bovine fetuin A in DMEM

Substance: Fetuin: bovine fetuin A (Sigma); glycoprotein also called alpha2-Heremans-Schmid-glycoprotein (AHSG)
- wound width, day 0 [1, 3]: 0.7602
- wound width, day 1 [1, 3]: 0.4265
- wound width, day 2 [1, 3]: 0.02947
- wound width, day 0 [1, 4]: 0.7332
- wound width, day 1 [1, 4]: 0.3938
- wound width, day 2 [1, 4]: 0.01441
- wound width, day 0 [1, 5]: 0.7231
- wound width, day 1 [1, 5]: 0.3699
- wound width, day 2 [1, 5]: 0.000259
- wound width, day 0 [1, 6]: 0.6724
- wound width, day 1 [1, 6]: 0.3806
- wound width, day 2 [1, 6]: 0.04348
- ability to enhance keratinocyte wound closure compared with thyroglobulin and TGF-β1 inhibitor ([1]; listed as fetuin): markedly more effective than either thyroglobulin or a TGF-β1 inhibitor
- ability to enhance keratinocyte wound closure compared with thyroglobulin and TGF-β1 inhibitor ([1]; listed as fetuin A): significantly greater ability than thyroglobulin and TGFβ1 to enhance keratinocyte wound closure
- penetration into the wound bed ([2]; debrided wound, aqueous solution): significant penetration into the wound bed
- penetration into the wound bed ([2]; debrided wound, water based gel): significant penetration into the wound bed
- penetration into the wound bed ([2]; direct injection into the wound): significant penetration into the wound bed
- binding to TGF-β2 (TGF-β2): strongly
- binding to BMP-6 (BMP-6): strongly
